Experimental data taken from ChEMBL document CHEMBL3351419, “Orally bioavailable 6-chloro-7-methoxy-4(1H)-quinolones efficacious against multiple stages of Plasmodium” (J Med Chem, 2014).
Values after ≈ are worked out from the molar mass of the structure shown.

Assays:
[1] = system: Plasmodium falciparum; assay: Antimalarial activity against multi-drug-resistant Plasmodium falciparum W2 infected in human type A+ erythrocytes assessed as growth inhibition after 72 hrs by SYBR Green I assay; format: functional, organism-based; settings: W2, 72 h
[2] = Resistance index, ratio of EC50 for multi-drug-resistant Plasmodium falciparum TM90-C2B infected in human type A+ erythrocytes to EC50 for multi-drug-resistant Plasmodium falciparum W2 infected in human type A+ erythrocytes; format: functional
[3] = system: Plasmodium falciparum; assay: Antimalarial activity against multi-drug-resistant Plasmodium falciparum TM90-C2B infected in human type A+ erythrocytes assessed as growth inhibition after 72 hrs by SYBR Green I assay; format: functional, organism-based
[4] = system: J774; assay: Cytotoxicity against mouse J774 cells after 72 hrs by CellTiter 96 assay; format: cell-based; settings: J774, 72 h
[5] = Cytotoxicity index, ratio of EC50 for mouse J774 cells to EC50 for multi-drug-resistant Plasmodium falciparum TM90-C2B infected in human type A+ erythrocytes; format: toxicity, cell-based; settings: read-out: Ratio EC50
[6] = Aqueous solubility of the compound at pH 7.4; format: physicochemical; settings: buffer
[7] = octanol/water, pH 7.4
[8] = system: Plasmodium berghei; assay: Antimalarial activity against Plasmodium berghei ANKA expressing GFP infected in Balb/c mouse assessed as mouse survival at 50 mg/kg, po qd administered as single dose on day 3 to 5 of exposure measured on day 6 post exposure by in vivo thomson test relative to control; format: functional
[9] = system: Plasmodium berghei; assay: Antimalarial activity against Plasmodium berghei ANKA expressing GFP infected in Balb/c mouse assessed as inhibition of parasitemia at 50 mg/kg, po qd administered as single dose on day 3 to 5 of exposure measured on day 6 post exposure by in vivo thomson test relative to control; format: functional
[10] = system: Plasmodium berghei; assay: Antimalarial activity against Plasmodium berghei ANKA expressing GFP infected in Balb/c mouse assessed as inhibition of parasitemia at 10 mg/kg, po qd administered as single dose on day 3 to 5 of exposure measured on day 6 post exposure by in vivo thomson test relative to control; format: functional
[11] = system: Plasmodium berghei; assay: Antimalarial activity against Plasmodium berghei ANKA expressing GFP infected in Balb/c mouse assessed as mouse survival at 10 mg/kg, po qd administered as single dose on day 3 to 5 of exposure measured on day 6 post exposure by in vivo thomson test relative to control; format: functional
[12] = system: Plasmodium berghei; assay: Antimalarial activity against Plasmodium berghei ANKA expressing GFP infected in Balb/c mouse assessed as mouse cured from disease at 10 mg/kg, po qd administered as single dose on day 3 to 5 of exposure measured on day 30 post exposure by in vivo thomson test relative to control; format: functional

| Structure (SMILES) | EC50 [1] [nM] | Ratio EC50 [2] | EC50 [3] [nM] | EC50 [4] [nM] | selectivity ratio [5] | solubility kinetic [6] [µM] | logD [7] | mouse survival time at 50 mg/kg [8] [days] | inhibition in vivo at 50 mg/kg [9] [%] | inhibition in vivo at 10 mg/kg [10] [%] | survival time at 10 mg/kg [11] [days] | Activity [12] [%] |
| --- | --- | --- | --- | --- | --- | --- | --- | --- | --- | --- | --- | --- |
| COc1cc2[nH]c(C)c(-c3cncnc3)c(=O)c2cc1Cl | 2990 | 0.45 | 1360 | > 33100 | > 24.4 | – | – | – | – | – | – | – |
| COc1cc2[nH]c(C)c(-c3cccc(CO)c3)c(=O)c2cc1Cl | 5400 | 0.15 | 829 | > 30300 | > 36.6 | – | – | – | – | – | – | – |
| COc1cc2[nH]c(C)c(-c3ccc(C=O)cc3)c(=O)c2cc1Cl | 5520 | 0.7 | > 3810 | > 30500 | – | – | – | – | – | – | – | – |
| CCCSc1ccc2nc(NC(=O)OC)[nH]c2c1 [ALBENDAZOLE] | – | – | – | – | – | 6.1 (≈ 1.62 µg/mL) | – | – | – | – | – | – |
| CC(C)(C)NCC(O)COc1cccc2c1CC(O)C(O)C2 (stereo unspecified) [NADOLOL] | – | – | – | – | – | – | 0.68 | – | – | – | – | – |
| CCc1ccccc1-c1c(C)[nH]c2cc(OC)c(Cl)cc2c1=O | 61.7 | 2.59 | 160 | 16200 | 102 | – | – | – | – | – | – | – |
| COc1cc2[nH]c(C)c(-c3cccc4c3oc3ccccc34)c(=O)c2cc1Cl | 49 | 0.68 | 33.6 | > 25700 | > 765 | – | – | – | – | – | – | – |
| COc1cc2[nH]c(C)c(-c3ccc(C(C)(C)C)cc3)c(=O)c2cc1Cl | 66.8 | – | 116 | > 28100 | – | – | – | – | – | – | – | – |
| COc1cc2[nH]c(C)c(-c3ccc(COc4ccccc4)cc3)c(=O)c2cc1Cl | 1.3 | 0.49 | 0.638 | – | – | – | – | – | – | – | – | – |
| COc1cc2[nH]c(C)c(-c3cc(C(F)(F)F)cc(C(F)(F)F)c3)c(=O)c2cc1Cl | 1680 | 0.27 | 449 | > 22900 | > 51.1 | – | – | – | – | – | – | – |
| COc1cc2[nH]c(C)c(-c3ccc4c(c3)OCCO4)c(=O)c2cc1Cl | 173 | 0.53 | 91.9 | > 27900 | > 304 | – | – | – | – | – | – | – |
| COc1cc2[nH]c(C)c(-c3ccc(OCc4ccccc4)cc3)c(=O)c2cc1Cl | 10.6 | 0.12 | 1.28 | > 24600 | > 19300 | – | – | – | – | – | – | – |
| COc1cc2[nH]c(C)c(-c3ccc(OCc4ccc(F)cc4)cc3)c(=O)c2cc1Cl | 5.18 | – | 1.56 | > 23600 | – | – | – | – | – | – | – | – |
| COc1cc2[nH]c(C)c(-c3ccc(CO)cc3)c(=O)c2cc1Cl | 154 | 0.61 | 93.9 | > 30300 | > 323 | – | – | 0 | < 1 | < 1 | 0 | – |
| COc1cc2[nH]c(C)c(-c3ccc(Oc4ccc(OC(F)(F)F)cc4)cc3C)c(=O)c2cc1Cl | 0.312 | 2.07 | 0.646 | > 20400 | > 31600 | < 2 | 2.1 | – | 98 | 99 | 23 | 100 |
| COc1cc2[nH]c(C)c(-c3c(C)cc(C)cc3C)c(=O)c2cc1Cl | 46 | 1.01 | 46.3 | 2990 | 64.6 | – | – | – | – | – | – | – |
| COc1cc2[nH]c(C)c(-c3ccc4nonc4c3)c(=O)c2cc1Cl | 1970 | 0.04 | 80.6 | > 29300 | > 363 | – | – | – | – | – | – | – |
| COc1cc2[nH]c(C)c(-c3ccc(C)cc3C)c(=O)c2cc1Cl | 9.15 | 0.35 | 3.17 | 3740 | 1180 | – | – | – | – | – | – | – |
| COc1cc2[nH]c(C)c(-c3ccc(C(F)(F)F)cc3F)c(=O)c2cc1Cl | 21.4 | 0.48 | 10.4 | > 25900 | > 2500 | – | – | – | – | – | – | – |
| C(=C\c1ccccc1)/CN1CCN(C(c2ccccc2)c2ccccc2)CC1 [CINNARIZINE] | – | – | – | – | – | – | 5.68 | – | – | – | – | – |
| COc1cc2[nH]c(C)c(-c3c(F)cccc3F)c(=O)c2cc1Cl | 35.7 | 0.24 | 8.64 | > 29800 | > 3450 | – | – | – | – | – | – | – |
